# Patent US20090197853A1, “METHODS AND COMPOSITIONS OF TREATING CANCER” (priority 2005, published 2009)
# Experiments:
# [1] = system: metallothionein gene family members and ZnT1; assay: Northern blot analysis, PC3 cultures; format: cell-based; conditions: PC3, 4 hours
# Description: (§1) Methods: Northern Blot Analysis—Plateau phase cultures of A549 cells were prepared as described above, except that T-25 flasks were used, and the number of cells initially plated scaled accordingly. Cultures were treated with 50 μM MGd, 5 μM Gd(OAc)3 or 5% mannitol for 4 hours, whereupon cultures were washed twice with PBS and RNA harvested as above. Alternatively, 7-day plateau phase A549 or PC3 cultures were treated with 50 μM MGd, 50-100 μM Zn(OAc)2, 50 μM CdCl2 or 5% mannitol for 24 hours (A549) or 4 hours (PC3) prior to washing and RNA analysis. Exponential phase Ramos cultures were treated for 6 hours. Northern blots were conducted and analyzed. Radio labeled metallothionein probe, designed to bind to a 113-bp region of 3′-UTR sequences from multiple metallothionein gene family members, was generated using 5′-[…]-3′ (forward) and 5′-[…]-3′ (reverse) PCR primers and the NEBlot kit (New England Biolabs, Inc.). Radio labeled ZnT1 probe was generated in a similar fashion using 5′-[…]-3′ (forward) and 5′-[…]-3′ (reverse) primers.
# [2] = system: metallothionein gene family members and ZnT1; assay: Northern blot analysis, Ramos cultures; format: cell-based; conditions: 6 hours
# Description: as §1
structure (smiles),measurement,setting,value
"CC(=O)[O-].CC(=O)[O-].CCc1c(CC)c2cc3nc(cnc4cc(OCCOCCOCCOC)c(OCCOCCOCCOC)cc4ncc4nc(cc1[n-]2)C(CCCO)=C4C)C(C)=C3CCCO.O.[Gd+3] [MGd, Motexafin gadolinium]",Expression of metallothionein family members and ZnT1,[1],increased
same,Expression of metallothionein family members and ZnT1,[2],increased
